In patent US20070299109A1, “Dimeric Compounds Of Piperidine, Piperazine Or Morpholine Or Their 7-Membered Analogs Suitable For The Treatment Of Neurodegenerative Disorders” (priority 2004, published 2007):

Tested on: chicken dorsal root ganglion neurons
Assay: Neuronal viability assay (calcein-AM) in primary culture of chicken dorsal root ganglion neurons
Format: cell-based, White Leghorn chick embryos
Conditions: Gallus gallus, DRG neuron, 48 h; survival of chick DRG neurons after two days of incubation; 0% = no neurotrophic factor, 100% = 10 ng/ml NGF; read-out: [C1] DRG assay SCORE (pIC50 value scored) (converted)
Source text: This assay is based on a fluorimetric Calcein-AM measurement and addresses the functional response of neurons as a quantitative measure of survival.
Dorsal root ganglia were dissected from White Leghorn chick embryos at embryonic day 10 as described previously (Skaper S. D. and Varon S. (1986) Brain Research 389, 39-46). The ganglia were trypsinised and dissociated by mild trituration in a HBSS buffer supplemented with 0.6% glucose and 0.08% trypsin. To remove non-neuronal cells by differential attachment to culture plastic, the ganglionic cell suspension was lo diluted to 2.5×10^5 cells/ml and seeded on tissue culture plastic dishes at 10 ml per 100 mm dish. After 2 h preplating, unattached neurons were collected and resuspended into Basal Eagle Medium containing 10% FCS. To remove cell aggregates, the cell suspension was passed through a nylon mesh (50 μM) pore diameter. Neuron-enriched cell suspension was plated at 5×10^4 cells/ml into poly-L-ornithine (100 μg/ml) and laminine (1 μg/ml) coated multiwell 96 plates. Compounds were dissolved in dimethyl sulfoxide and kept as a stock at −20° C. NGF and compounds were diluted in the culture medium and added to the cells immediately after plating. The final concentration of dimethyl sulfoxide in the test medium was 0.1%. After two days of incubation, neuronal viability was assessed with calcein-AM.
Neuronal viability assay using calcein AM was performed as previously described (Bozyczko-Coyne D., McKenna B. W., Connors T. J., and Neff N. T. (1993) Journal of Neuroscience Methods 50, 205-216). For the assay, calcein-AM was diluted in PBS to the final concentration (1 μM). […] Following the incubation, reading was done in a Cytofluor II at an excitation wavelength of 485 nm and an emission wavelength of 530 nm. […]
The drugs to be tested were taken from a stock solution and tested at a final concentration ranging from […] to 3.10^−9M. From the thus obtained dose response curves, the pIC50 value was calculated and scored as follows; Score 1=pIC50 value<6, Score 2=pIC50 value in the range of 6 to 8, Score 3=pIC50 value>8.

SMILES	IC50 [nM]
CN(c1nc2ccc(F)cc2s1)C1CCN(C(=O)CCCCCCCC(=O)N2CCC(N(C)c3nc4ccc(F)cc4s3)CC2)CC1 [Compound 5]	10 to 1000
CN(c1nc2ccccc2s1)C1CCN(C(=O)NC2CCC(CC3CCC(NC(=O)N4CCC(N(C)c5nc6ccccc6s5)CC4)CC3)CC2)CC1 (stereo not drawn) [Compound 9]	10 to 1000
c1ccc2c(c1)CCN2C1CCN(CCCN2CCC(N3CCc4ccccc43)CC2)CC1 [Compound 47]	> 1000
